Measured values reported in patent US20140031227A1, “HERBICIDAL COMPOSITIONS COMPRISING 4-AMINO-3-CHLORO-5-FLUORO-6-(4-CHLORO-2-FLUORO-3-METHOXYPHENYL) PYRIDINE-2-CARBOXYLIC ACID OR A DERIVATIVE THEREOF AND GLYPHOSATE OR GLUFOSINATE” (DOW AGROSCIENCES LLC, priority 2012, published 2014).
Where a name gives a salt, the structure may show the parent alone.

Columns and labels:
Format in all cases: in vivo
[1] = tested on: AMARE (Amaranthus retroflexus L., redroot pigweed); experiment: Example IV postemergence foliar-applied mixtures, general weed control, greenhouse: AMARE (Table 17, species inferred from b27)
Experimental: (§1) Seeds or nutlets of the desired test plant species were planted in Sun Gro Metro-Mix® 360 planting mixture, which typically has a pH of 6.0 to 6.8 and an organic matter content of about 30 percent, in plastic pots with a surface area of 84.6 square centimeters (cm^2). […] The plants were grown for 7-31 days (d) in a greenhouse with an approximate 15 hour (h) photoperiod which was maintained at about 23-29° C. during the day and 22-28° C. during the night. Nutrients (Peters Excel® 15-5-15 5-Ca 2-Mg) and water were added on a regular basis and supplemental lighting was provided with overhead metal halide 1000-Watt lamps as necessary. The plants were employed for testing when they reached the first, second, or third true leaf stage.
(§2) Treatments consisted of the acid or the benzyl ester of 4-amino-3-chloro-5-fluoro-6-(4-chloro-2-fluoro-3-methoxy-phenyl)pyridine-2-carboxylic acid (Compound A), each formulated as an SC, and various herbicidal components alone and in combination. Forms of compound A were applied on an acid equivalent basis.
(§3) Other herbicidal components were applied on an acid equivalent or active ingredient basis and included the 5-enolpyruvylshikimate-3-phosphate synthase (EPSPS)-inhibiting herbicide, glyphosate dimethylamine salt, formulated as Durango DMA® and the glutamine synthase (GS)-inhibiting herbicide, glufosinate ammonium, formulated as Ignite® 280.
(§4) For treatments comprised of formulated compounds, measured amounts of compounds were placed individually in 25 mL glass vials and diluted in a volume of 1.25% (v/v) Agri-dex crop oil concentrated to obtain 12× stock solutions. […] Application solutions were prepared by adding an appropriate amount of each stock solution (typically 1 mL) and diluted to the appropriate final concentrations with the addition of 10 mL of an aqueous mixture of 1.25% (v/v) Agri-dex crop oil concentrate so that the final spray solutions contained 1.25% (v/v) Agri-dex crop oil concentrate.
(§5) All stock solutions and applications solutions were visually inspected for compound compatibility prior to application. Compound requirements are based upon a 12 mL application volume at a rate of 187 liters per hectare (L/ha). Formulated compounds were applied to the plant material with an overhead Mandel track sprayer equipped with 8002E nozzles calibrated to deliver 187 L/ha over an application area of 0.503 square meters (m^2) at a spray height of 18 to 20 inches (46 to 50 cm) above the average plant canopy height. Control plants were sprayed in the same manner with the solvent blank.
(§6) The treated plants and control plants were placed in a greenhouse as described above and watered by sub-irrigation to prevent wash-off of the test compounds. After approximately 3 weeks, the condition of the test plants as compared with that of the untreated plants was determined visually and scored on a scale of 0 to 100 percent where 0 corresponds to no injury or growth inhibition and 100 corresponds to complete kill.
(§7) Colby's equation was used to determine the herbicidal effects expected from the mixtures (Colby, S. R. 1967. Calculation of the synergistic and antagonistic response of herbicide combinations. Weeds 15:20-22.) .

[2] = tested on: ECHCG (Echinochloa crusgalli (L.) Beauv., barnyardgrass); experiment: Example IV postemergence foliar-applied mixtures, general weed control, greenhouse: ECHCG
Experimental: as §6, §7
The following equation was used to calculate the expected activity of mixtures containing two active ingredients, A and B:
A=observed efficacy of active ingredient A at the same concentration as used in the mixture.
B=observed efficacy of active ingredient B at the same concentration as used in the mixture.

[3] = tested on: SETFA (Setaria faberi Herrm., giant foxtail); experiment: Example IV postemergence foliar-applied mixtures, general weed control, greenhouse: SETFA
Experimental: as §1, §2, §3, §4, §5, §6, §7

[4] = tested on: CYPDI (Cyperus difformis L., smallflower umbrella sedge); experiment: Example I postemergence foliar-applied mixtures, direct seeded rice weeds, greenhouse: CYPDI
Experimental: Seeds or nutlets of the desired test plant species were planted in a soil matrix prepared by mixing a loam or sandy loam soil (e.g., 28.6 percent silt, 18.8 percent clay, and 52.6 percent sand, with a pH of about 5.8 and an organic matter content of about 1.8 percent) and calcareous grit in an 80 to 20 ratio. The soil matrix was contained in plastic pots with a volume of 1 quart and a surface area of 83.6 square centimeters (cm^2). […] The plants were grown for 8-22 days in a greenhouse with an approximate 14 hr photoperiod which was maintained at about 29° C. during the day and 26° C. during the night. Nutrients (Peters Excel® 15-5-15 5-Ca 2-Mg and iron chelate) were applied in the irrigation solution as needed and water was added on a regular basis. Supplemental lighting was provided with overhead metal halide 1000-Watt lamps as necessary. The plants were employed for testing when they reached the first through fourth true leaf stage.
as §2, with “esters” for “the benzyl ester”, “SC (suspension concentrate),” for “SC,”
For treatments comprised of formulated compounds, measured amounts of compounds were placed individually in 25 mL glass vials and diluted in a volume of 1.25% (v/v) Agri-Dex® crop oil concentrated to obtain 12× stock solutions. […] Application solutions were prepared by adding an appropriate amount of each stock solution (e.g., 1 mL) and diluted to the appropriate final concentrations with the addition of 10 mL of an aqueous mixture of 1.25% (v/v) crop oil concentrate so that the final spray solutions contained 1.25+/−0.05% (v/v) crop oil concentrate.
All stock solutions and applications solutions were visually inspected for compound compatibility prior to application. Spray solutions were applied to the plant material with an overhead Mandel track sprayer equipped with a 8002E nozzles calibrated to deliver 187 L/ha over an application area of 0.503 m^2 at a spray height of 18 to 20 inches (46 to 50 cm) above average plant canopy height. Control plants were sprayed in the same manner with the solvent blank.
as §6, with “kill. […]” for “kill.”

[5] = Compound A Benzyl Ester 8 gae/ha alone
[6] = Glufosinate ammonium salt 225 gai/ha alone

COc1c(Cl)ccc(-c2nc(C(=O)OCc3ccccc3)c(Cl)c(N)c2F)c1F [Compound A Benzyl Ester]
Visual Weed Control (%) - 18 DAA AMARE Obs ([1]; Compound A Benzyl Ester 2 gae/ha alone): 50%
Visual Weed Control (%) - 18 DAA AMARE Obs ([1]; Compound A Benzyl Ester 4 gae/ha alone): 60%
Visual Weed Control (%) - 18 DAA AMARE Obs [1, 5]: 85%
Visual Weed Control (%) - 18 DAA AMARE Obs ([1]; Compound A Benzyl Ester 16 gae/ha alone): 85%
Visual Weed Control (%) - 18 DAA AMARE Obs ([1]; Compound A Benzyl Ester 32 gae/ha alone): 100%
Visual Weed Control (%) - 18 DAA ECHCG Obs [2, 5]: 40%
VisualWeed Control (%) - 18 DAA SETFA Obs ([3]; Compound A Benzyl Ester 2 gae/ha alone, 18 DAA): 40%
VisualWeed Control (%) - 18 DAA SETFA Obs ([3]; Compound A Benzyl Ester 4 gae/ha alone, 18 DAA): 40%
VisualWeed Control (%) - 18 DAA SETFA Obs ([3]; Compound A Benzyl Ester 8 gae/ha alone, 18 DAA): 75%
VisualWeed Control (%) - 18 DAA SETFA Obs ([3]; Compound A Benzyl Ester 16 gae/ha alone, 18 DAA): 85%
VisualWeed Control (%) - 18 DAA SETFA Obs ([3]; Compound A Benzyl Ester 32 gae/ha alone, 18 DAA): 90%
VisualWeed Control (%) - 18 DAA SETFA Obs ([3]; Compound A Benzyl Ester alone, 2 gae/ha): 40%
VisualWeed Control (%) - 18 DAA SETFA Obs ([3]; Compound A Benzyl Ester alone, 4 gae/ha): 40%

COc1c(Cl)ccc(-c2nc(C(=O)O)c(Cl)c(N)c2F)c1F [Compound A Acid, 4-amino-3-chloro-6-(4-chloro-2-fluoro-3-methoxyphenyl)-5-fluoropyridine-2-carboxylic acid]
Visual Weed Control (%) - 21 DAA CYPDI Obs ([4]; Compound A Acid alone, 4.38 gae/ha): 50%
Visual Weed Control (%) - 21 DAA CYPDI Obs ([4]; Compound A Acid alone, 8.75 gae/ha): 85%

CP(=O)(O)CCC(N)C(=O)O (stereo not shown) [Glufosinate ammonium salt, 2-amino-4-(hydroxymethylphosphinyl)butanoic acid monoammonium salt, reference compound]
Visual Weed Control (%) - 18 DAA AMARE Obs [1, 6]: 50%
Visual Weed Control (%) - 18 DAA ECHCG Obs ([2]; Glufosinate ammonium salt 112.5 gai/ha alone): 0%
Visual Weed Control (%) - 18 DAA ECHCG Obs [2, 6]: 0%
Visual Weed Control (%) - 18 DAA ECHCG Obs ([2]; Glufosinate ammonium salt 450 gai/ha alone): 10%
VisualWeed Control (%) - 18 DAA SETFA Obs ([3]; Glufosinate ammonium salt 450 gai/ha alone, 18 DAA): 60%
Visual Weed Control (%) - 21 DAA CYPDI Obs ([4]; glufosinate ammonium alone, 135.5 gae/ha): 0%
Visual Weed Control (%) - 21 DAA CYPDI Obs ([4]; glufosinate ammonium alone, 271 gae/ha): 0%
